Reference: patent US20160355530A1, “HEPATITIS C INHIBITORS AND USES THEREOF” (AbbVie Inc., priority 2010, published 2016)
Read-outs that look alike come from different tables or passages of the source.

Key:
[1] = tested on: chimeric replicon with genotype 3a NS5B; experiment: microbe, parasite or virus in culture; type: cell-based, HCV genotype 3a; conditions: Hepatitis C virus, read-out: 3a chimera 5% FBS EC50
[2] = tested on: chimeric replicon with 2a-J6CF-derived NS5B; experiment: microbe, parasite or virus in culture; type: cell-based, HCV genotype 2a; conditions: Hepatitis C virus, read-out: 2a chimera 5% FBS EC50
[3] = tested on: chimeric replicon with genotype 4a NS5B; experiment: microbe, parasite or virus in culture; type: cell-based, HCV genotype 4a; conditions: Hepatitis C virus, read-out: 4a chimera 5% FBS EC50
[4] = tested on: HCV 1b-BB7 subgenomic replicon; experiment: microbe, parasite or virus in culture; type: cell-based, HCV genotype 1b; conditions: Hepatitis C virus, stable replicon
[5] = tested on: HCV 1a-H77 subgenomic replicon; experiment: microbe, parasite or virus in culture; type: cell-based, HCV genotype 1a; conditions: Hepatitis C virus, stable replicon
[6] = tested on: chimeric replicon with genotype 2b NS5B; experiment: microbe, parasite or virus in culture; type: cell-based, HCV genotype 2b; conditions: Hepatitis C virus, read-out: 2b chimera 5% FBS EC50
[7] = target: T1, HCV NS5B polymerase 1b BK strain (Hepatitis C virus genotype 1b, UniProt P26663); experiment: HCV NS5B polymerase enzymatic inhibition assay, strain 1b BK; type: biochemical; conditions: enzyme, strain 1b BK; read-out: HCV Polymerase Strain 1b BK IC50
T1 construct: six-histidine tag; made in house; host or cells: E. coli
T1 sequence (P26663 2420-2989): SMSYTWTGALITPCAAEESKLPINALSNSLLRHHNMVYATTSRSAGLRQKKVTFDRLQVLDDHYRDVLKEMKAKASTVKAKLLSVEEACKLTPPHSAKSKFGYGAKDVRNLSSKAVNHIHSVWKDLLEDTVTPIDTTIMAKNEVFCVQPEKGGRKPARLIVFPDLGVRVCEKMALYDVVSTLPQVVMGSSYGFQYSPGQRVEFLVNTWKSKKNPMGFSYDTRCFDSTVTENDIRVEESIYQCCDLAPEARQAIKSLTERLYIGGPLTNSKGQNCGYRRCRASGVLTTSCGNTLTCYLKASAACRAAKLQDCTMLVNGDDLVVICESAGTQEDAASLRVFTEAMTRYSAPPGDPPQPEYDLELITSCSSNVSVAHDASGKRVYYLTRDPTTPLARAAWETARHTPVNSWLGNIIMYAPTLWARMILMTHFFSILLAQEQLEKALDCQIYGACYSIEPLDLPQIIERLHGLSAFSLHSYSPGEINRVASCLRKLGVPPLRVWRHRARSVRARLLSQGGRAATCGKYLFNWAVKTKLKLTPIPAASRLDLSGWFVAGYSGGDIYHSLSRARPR
In short: (§1)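 Incorporation of [3H]UTP (0.284 μM), alongside 20 μM each CTP and ATP, into RNA copied from a 5 nM 2.1 kb genotype 1b negative-strand template was measured after 3 h at 30° C using purified His-tagged NS5B truncated at residue 570. Product was spermine-precipitated, filtered and scintillation-counted; nonlinear regression gave IC50.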

[8] = tested on: HCV 1a-H77 transient subgenomic replicon in Huh-7 derived cell line; experiment: microbe, parasite or virus in culture; type: cell-based, HCV genotype 1a; conditions: Hepatitis C virus, Huh-7; transient replicon, 5% FBS; read-out: Transient Replicon 1a H77 5% FBS EC50
Protocol: (§2) In addition to the stable replicon inhibition assays, transient replicon assays were performed. Transient replicons are identical to the 1a-H77 and 1a-H77-C316Y constructs, except they lack the Neo gene, making it impossible to establish stable cell lines. A T7 Megascript RNA synthesis kit (Ambion) was used to transcribe the HCV subgenomic RNA. The HCV RNA was then precipitated with lithium chloride according to manufacturer's instructions. The HCV subgenomic replicon RNA was transfected via electroporation into a Huh-7 derived cell line as described (Middleton T, et al. J. Virological Methods 2007; 145(2): 137-145). Transfected cells were diluted and plated in 96 well plates at 5×10^3 cells per well in DMEM. Four hours post-transfection, the wells from one plate were harvested for luciferase measurement. This plate provides a measure of the amount of translatable input RNA, and therefore transfection efficiency. To the wells of the remaining plates, a 3-fold dilution series of test compounds was added in DMSO (0.5% DMSO final concentration), and plates were incubated at 37° C., 5% CO2 in a humidified incubator for 4 days. After this period, the media was removed and the plates were washed with 100 μL phosphate-buffered saline per well. For the luciferase assay, 30 μL of Passive Lysis buffer (Promega) was added to each well, and then the plates were incubated for 15 minutes with rocking to lyse the cells. Luciferin solution (100 μL, Promega) was added to each well, and luciferase activity was measured with a Victor II luminometer (Perkin-Elmer). The EC50 values were calculated using GraphPad Prism 4 software.

[9] = tested on: HCV 1a-H77-C316Y transient subgenomic replicon in Huh-7 derived cell line; experiment: microbe, parasite or virus in culture; type: cell-based, HCV genotype 1a; conditions: for EC50: Hepatitis C virus, Huh-7, read-out: Transient Replicon 1a H77-C316Y 5% FBS EC50; for Transient Replicon Fold Resistance C316Y/1a: ratio of transient replicon EC50s, C316Y / 1a H77
Protocol: as §2

[10] = target: T2, HCV NS5B polymerase 1a-H77 (Hepatitis C virus genotype 1a, UniProt P27958); experiment: biochemical; design: species or system HCV genotype 1a; conditions: enzyme, strain 1a H77; read-out: HCV Polymerase Strain 1a H77 IC50
T2 construct: six-histidine tag; made in house; host or cells: E. coli
T2 sequence (P27958 2421-2990): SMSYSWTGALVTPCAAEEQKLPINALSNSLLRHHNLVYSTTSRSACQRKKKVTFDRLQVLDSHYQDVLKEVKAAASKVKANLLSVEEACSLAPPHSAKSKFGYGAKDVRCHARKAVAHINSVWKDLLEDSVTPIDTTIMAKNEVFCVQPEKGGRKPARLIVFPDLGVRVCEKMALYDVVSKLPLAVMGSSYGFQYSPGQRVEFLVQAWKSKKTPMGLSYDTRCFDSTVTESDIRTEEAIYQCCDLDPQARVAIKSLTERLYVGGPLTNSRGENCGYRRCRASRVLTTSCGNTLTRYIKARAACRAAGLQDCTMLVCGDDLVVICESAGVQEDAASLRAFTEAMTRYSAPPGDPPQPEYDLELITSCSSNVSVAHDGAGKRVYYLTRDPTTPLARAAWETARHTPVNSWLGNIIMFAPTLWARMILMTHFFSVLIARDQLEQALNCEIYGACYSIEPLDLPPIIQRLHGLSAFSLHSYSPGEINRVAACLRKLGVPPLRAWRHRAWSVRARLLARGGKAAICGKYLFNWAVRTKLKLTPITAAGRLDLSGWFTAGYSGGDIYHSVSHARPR
In short: as §1

[11] = tested on: HCV NS5B polymerase 1a-H77-C316Y; experiment: biochemical; design: species or system HCV genotype 1a; conditions: ratio of enzyme IC50s, 1a H77-C316Y / 1a H77
In short: as §1

[12] = target: T3, HCV NS5B polymerase 1a-H77-C316Y (Hepatitis C virus genotype 1a, UniProt P27958, C2736Y); experiment: biochemical; design: species or system HCV genotype 1a
T3 construct: six-histidine tag; made in house; host or cells: E. coli
T3 sequence (P27958 2421-2990 C2736Y): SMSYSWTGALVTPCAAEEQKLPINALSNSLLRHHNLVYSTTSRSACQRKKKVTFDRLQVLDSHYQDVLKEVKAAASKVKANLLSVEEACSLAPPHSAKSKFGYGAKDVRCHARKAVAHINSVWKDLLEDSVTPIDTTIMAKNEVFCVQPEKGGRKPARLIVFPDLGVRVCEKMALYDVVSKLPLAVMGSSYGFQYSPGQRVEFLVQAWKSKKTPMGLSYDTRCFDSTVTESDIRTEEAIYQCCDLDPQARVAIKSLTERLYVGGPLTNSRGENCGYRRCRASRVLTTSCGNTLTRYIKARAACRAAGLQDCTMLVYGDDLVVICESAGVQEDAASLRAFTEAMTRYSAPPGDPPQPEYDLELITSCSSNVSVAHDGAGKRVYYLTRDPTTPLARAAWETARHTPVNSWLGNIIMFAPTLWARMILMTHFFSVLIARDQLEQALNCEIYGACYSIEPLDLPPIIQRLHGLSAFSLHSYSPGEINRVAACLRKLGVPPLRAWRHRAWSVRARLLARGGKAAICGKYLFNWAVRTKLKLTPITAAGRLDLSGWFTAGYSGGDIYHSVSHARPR
In short: as §1

[13] = strain 1b BB7, 5% FBS + 40% human plasma, read-out: 1b BB7 5% FBS + 40% Human Plasma EC50
[14] = strain 1b BB7, 5% FBS, no human plasma, read-out: 1b BB7 5% FBS EC50
[15] = strain 1b BB7, 5% FBS, read-out: 1b BB7 5% FBS EC50
[16] = 5% FBS, absence of human plasma, read-out: Stable Replicon 1a H77 5% FBS EC50
[17] = strain 1a H77, 5% FBS + 40% human plasma, read-out: 1a H77 5% FBS + 40% Human Plasma EC50
[18] = strain 1a H77, 5% FBS, no human plasma, read-out: 1a H77 5% FBS EC50
[19] = strain 1a H77, 5% FBS, read-out: 1a H77 5% FBS EC50

| SMILES | EC50 [1] | EC50 [2] | EC50 [3] | EC50 [4, 13] | EC50 [4, 14] | EC50 [4, 15] | EC50 [5, 16] | EC50 [5, 17] | EC50 [5, 18] | EC50 [5, 19] | EC50 [6] | IC50 [7] | EC50 [8] | EC50 [9] | Transient Replicon Fold Resistance C316Y/1a [9] | IC50 [10] | C316Y/1a Fold Resistance [11] | IC50 [12] |
| --- | --- | --- | --- | --- | --- | --- | --- | --- | --- | --- | --- | --- | --- | --- | --- | --- | --- | --- |
| CS(=O)(=O)N(Cc1cnc(-c2ccc3nc[nH]c3c2)s1)c1ccc2c(-c3ncc[nH]3)c(-c3ccccc3)oc2c1 [Example 3, N-{[2-(1H-benzimidazol-6-yl)-1,3-thiazol-5-yl]methyl}-N-[3-(1H-imidazol-2-yl)-2-phenyl-1-benzofuran-6-yl]methanesulfonamide] | 2.8 nM | 29.3 nM | 135 nM | 760 nM | 5 nM | 5 nM | 48 nM | 7930 nM | 48 nM | 48 nM | 81.8 nM | 10 nM | 21.3 nM | 109 nM | 5 fold | 3 nM | 4 fold | 11 nM |
| CC(C)CCN(c1cc2oc(-c3ccc(F)cc3)c(-c3ncc[nH]3)c2cc1C1CC1)S(C)(=O)=O [Example 4, N-[5-cyclopropyl-2-(4-fluorophenyl)-3-(1H-imidazol-2-yl)-1-benzofuran-6-yl]-N-(3-methylbutyl)methanesulfonamide] | 11 nM | 156 nM | 169 nM | 297 nM | 25 nM | 25 nM | 29 nM | 512 nM | 29 nM | 29 nM | 270 nM | 11 nM | 7.9 nM | 69.4 nM | 9 fold | 5.3 nM | 11 fold | 57 nM |
| CS(=O)(=O)N(CCCCO)c1cc2oc(-c3ccc(F)cc3)c(-c3ncc[nH]3)c2cc1C1CC1 [Example 5, N-[5-cyclopropyl-2-(4-fluorophenyl)-3-(1H-imidazol-2-yl)-1-benzofuran-6-yl]-N-(4-hydroxybutyl)methanesulfonamide] | 4.7 nM | 28.9 nM | 32.2 nM | 22 nM | 3.69 nM | 3.7 nM | 3.2 nM | 50 nM | 3.19 nM | 3.2 nM | 27.9 nM | 17 nM | 3 nM | 88.1 nM | 29 fold | 3.9 nM | 14 fold | 53 nM |
| CS(=O)(=O)CCCCN(c1cc2oc(-c3ccc(F)cc3)c(-c3ncc[nH]3)c2cc1C1CC1)S(C)(=O)=O [Example 6, N-[5-cyclopropyl-2-(4-fluorophenyl)-3-(1H-imidazol-2-yl)-1-benzofuran-6-yl]-N-[4-(methylsulfonyl)butyl]methanesulfonamide] | 3.3 nM | 26 nM | 16.1 nM | 36.2 nM | 3.9 nM | 3.9 nM | 8.3 nM | 61.3 nM | 8.3 nM | 8.32 nM | 18.8 nM | 16 nM | 3.2 nM | 105 nM | 33 fold | 5.2 nM | 13 fold | 69 nM |
| CS(=O)(=O)N(CCCc1cc(O)no1)c1cc2oc(-c3ccc(F)cc3)c(-c3ncc[nH]3)c2cc1C1CC1 [Example 7, N-[5-cyclopropyl-2-(4-fluorophenyl)-3-(1H-imidazol-2-yl)-1-benzofuran-6-yl]-N-[3-(3-hydroxy-1,2-oxazol-5-yl)propyl]methanesulfonamide] | 11.1 nM | 218 nM | 162 nM | 106 nM | 5.7 nM | 5.7 nM | 15 nM | 111 nM | 15 nM | 15 nM | 178 nM | 11 nM | 9.9 nM | 327 nM | 33 fold | 3 nM | 4 fold | 12 nM |
| CC(C)CCN(c1cc2oc(-c3ccc(F)cc3)c(C3=NOCCN3)c2cc1C1CC1)S(C)(=O)=O [Example 10, N-[5-cyclopropyl-3-(5,6-dihydro-4H-1,2,4-oxadiazin-3-yl)-2-(4-fluorophenyl)-1-benzofuran-6-yl]-N-(3-methylbutyl)methanesulfonamide] | 16 nM | 181 nM | 192 nM | 171 nM | 16.2 nM | 16.2 nM | 10.5 nM | 134 nM | 10.5 nM | 10.5 nM | 303 nM | 105 nM | 6 nM | 33.5 nM | 6 fold | 7 nM | – | 64 nM |
| CS(=O)(=O)N(Cc1cnc(-c2ccc3[nH]ccc3c2)s1)c1cc2oc(-c3ccc(F)cc3)c(-c3ncc[nH]3)c2cc1C1CC1 [Example 31, N-[5-cyclopropyl-2-(4-fluorophenyl)-3-(1H-imidazol-2-yl)-1-benzofuran-6-yl]-N-{[2-(1H-indol-5-yl)-1,3-thiazol-5-yl]methyl}methanesulfonamide] | – | 185 nM | 84 nM | 201 nM | 28.4 nM | 28.4 nM | 41.6 nM | 382 nM | 41.6 nM | 41.6 nM | 151 nM | 7 nM | 30.9 nM | 828 nM | 27 fold | 3.5 nM | 50 fold | 172 nM |
| COc1ccc(CN(c2cc3oc(-c4ccc(F)cc4)c(C4=NOC(C)N4)c3cc2C2CC2)S(C)(=O)=O)cc1 (stereo not drawn) [Example 151, N-[5-cyclopropyl-2-(4-fluorophenyl)-3-(5-methyl-4,5-dihydro-1,2,4-oxadiazol-3-yl)-1-benzofuran-6-yl]-N-(4-methoxybenzyl)methanesulfonamide] | – | – | – | 1500 nM | 30 nM | 30 nM | 119 nM | 2280 nM | 119 nM | 119 nM | – | 48 nM | 33.2 nM | 2930 nM | 88 fold | 9 nM | 11 fold | 102 nM |
